# Assays:
# [1] = tested on: renal cell carcinoma cell line (ACHN); experiment: Cell survival assay (MTT assay), ACHN; assay type: cell-based, human; conditions: 10 mM, 25 mM and 50 mM in MEM, 24 hours, compared with Control (p<0.05), FIG. 1
# Description: The antitumor effect of rare sugars was analyzed using the three human renal cell carcinoma cell lines (ACHN, Caki-I, and Caki-II) used in Example 1. As the rare sugars, used were the following ten rare sugars: L-allulose, D-allulose, D-allose, L-fructose, D-mannose, L-sorbose, D-tagatose, D-galactose, D-sorbose, and L-tagatose, while as monosaccharides not belonging to rare sugars, D-glucose and D-fructose were used.
# As a medium, a minimum essential medium (MEM) containing 1000 mg/l of D-glucose was used. By adjusting it to contain 10 mM, 25 mM, and 50 mM of each of the monosaccharides or rare sugars and using thus-obtained MEMs [shown by (10), (25), and (50) in the drawing], an antitumor effect of the rare sugars was evaluated.
# A 5.0×10^4 cells/ml of each of cell suspensions was formed using MEM. The resulting suspension (0.1 ml/well) was distributed in a 96-well plate, followed by culturing for 24 hours. […]
# The MTT assay is one of test methods for measuring survival and makes use of a color reaction of an insoluble formazan dye (blue) caused by the reduction of MTT which is a tetrazolium salt. […] The cell viability is determined by measuring this color reaction with a microplate reader.
# ACHN tumor = experiment: D-allose concentration in tumor after intraperitoneal injection, ACHN xenograft mouse model; assay type: in vivo; conditions: ACHN xenograft mice, 400 mg/kg intraperitoneal
# Description: (§1) The experiment of the present example used two human renal cell carcinoma cell lines (Caki-I and ACHN). Each cell was cultured under the wet environment of 37° C. and 5% CO2 by using a RPMI-1640 culture solution (2000 mg D-glucose/L) containing a 10% fetal calf serum, a HEPES buffer, and penicillin-streptomycin.
# (§2) With respect to a renal cell carcinoma xenograft mouse model, a 1.0×10^5 cells/ml of a cell suspension was obtained by adjusting the cultured cells with a MEM culture solution and then 0.1 ml of the resulting suspension was injected into the femoral subcutaneous tissue of Female athymic nude mice (BALB/c-nu/nu, 6-week-old). After checking that the tumor volume was 200 mm^3 or more one week after the injection, the mice were provided for the experiment thereafter.
# A 400 mg/kg/0.4 mL solution of rare sugar D-allose was prepared using physiological saline and was intraperitoneally injected into the xenograft mouse models of two human renal cell carcinoma cell lines (Caki-I and ACHN) through a 27 G needle. A tumor was enucleated from the mouse before […] administration and 1 hour, 2 hours, and 4 hours after the administration. […] A monosaccharide in the supernatant thus obtained was labeled with ABEE (4-aminobenzoic acid ethyl ester) and the quantitative analysis of D-allose was performed by HPLC (high performance liquid chromatography). […]
# Caki-I tumor tissue = experiment: Tumor tissue histology (necrosis area, nuclear fission), Caki-I xenograft mouse model; assay type: in vivo, mice; conditions: day 35
# Description: as §1, §2
# (§3) The day when the tumor size of the renal cell carcinoma xenograft mouse models became 200 mm^3 or more was called day 0 and the intraperitoneal injection of a D-allose-containing solution was started from day 1. The solution injected is 0.4 mL of physiological saline or a solution obtained by dissolving 100 mg/kg or 400 mg/kg of D-allose in 0.4 mL physiological saline. The resulting solution was intraperitoneally injected into three groups of mice (Control, 100 mg/kg of D-allose, and 400 mg/kg of D-allose) once a day for 5 weeks in total. The body weight of the mice and the long and short diameters of the tumor were measured over time twice a week. It is to be noted that the tumor volume was obtained as a product of long diameter×short diameter×short diameter of the tumor×0.5. On day 35 after the intraperitoneal injection was started, the tumor as well as the liver and kidney were excised from the mice and provided for the experiment performed thereafter.
# The tissue of the excised tumor, kidney, and liver was fixed with a 4% paraformaldehyde phosphate buffer, embedded with paraffin, and sliced into a 4-μm thick section. The resulting sliced section was stained with hematoxylin and eosin and evaluated by a medical specialist in pathology. The influence of D-allose on the tumor tissue was evaluated by a necrosis area (%) and an image of the number of nuclear fissions (Cells/HPF). It is to be noted that the necrosis area was measured using an image recording software Nikon NIS—Elements D and figures after the decimal point were omitted. On the other hand, the number of nuclear fissions was obtained as an average of those of three fields of view and figures after the decimal point were also omitted. The anti-tumor effect of D-allose, more specifically, necrosis area and the number of nuclear fissions in the renal cell carcinoma xenograft mouse model are shown in Table 10.
# [2] = Body weight in renal cell carcinoma xenograft mouse models; assay type: in vivo, mice; conditions: Control, 100 mg/kg and 400 mg/kg intraperitoneal once a day for 5 weeks; Mann-Whitney U test; FIG. 6
# Description: as §3
# kidney tissue = experiment: Kidney tissue histology in renal cell carcinoma xenograft mouse models; assay type: in vivo; conditions: xenograft mice, intraperitoneal once a day, day 35; diagnosis by a medical specialist in pathology; FIG. 7
# Description: as §3, with “On day 35 after the intraperitoneal injection was started, the tumor as well as the liver and kidney were excised from the mice and provided for the experiment performed thereafter.” left out
# The tissue of the excised tumor, kidney, and liver was fixed with a 4% paraformaldehyde phosphate buffer, embedded with paraffin, and sliced into a 4-μm thick section. The resulting sliced section was stained with hematoxylin and eosin and evaluated by a medical specialist in pathology. The influence of D-allose on the tumor tissue was evaluated by a necrosis area (%) and an image of the number of nuclear fissions (Cells/HPF). It is to be noted that the necrosis area was measured using an image recording software Nikon NIS—Elements D and figures after the decimal point were omitted. […]
# [3] = 100 mg/kg intraperitoneal once a day
# [4] = 400 mg/kg intraperitoneal once a day
smiles,measurement,setting,value
O=C[C@H](O)[C@H](O)[C@H](O)[C@H](O)CO [D-allose],Viability,[1],significantly reduced the viability
same,D-allose in tumor one hour after intraperitoneal injection,"ACHN tumor; HPLC, FIG. 4",detected
same,Time after injection at which D-allose concentration in tumor became the highest,"ACHN tumor; sampled 1, 2, 4 hours",two
same,Necrosis area,Caki-I tumor tissue; [3],22%
same,Nuclear fission,Caki-I tumor tissue; [3],0.9 Cells/HPF
same,Necrosis area,Caki-I tumor tissue; [4],33%
same,Nuclear fission,Caki-I tumor tissue; [4],1 Cells/HPF
same,"Mice weight, difference among three groups",[2],No significant difference
same,Influence on the kidney tissue,kidney tissue,No influence
